The record followed here is BindingDB's records for PubMed 37567057 (Institute of Organic Chemistry and Biochemistry of the …).

Usually EC50 stands for the concentration giving half of the maximal effect. The low end stands for higher potency in that assay, the high end for lower potency in that assay.

Assay [1] concerns the target T1, Stimulator of interferon genes protein (Homo sapiens, UniProt Q86WV6). In words: Agonist activity at STING R71H/G230A/R293Q mutant (unknown origin) expressed in digitonin -permeabilized HEK293T cells preincubated for 30 mins followed by washout and measured after 5 hrs by Bright-glo luciferase assay.
Assay [2] concerns the target T1, Stimulator of interferon genes protein. The assay is described as follows: Agonist activity at STING G230A/R293Q mutant (unknown origin) expressed in digitonin -permeabilized HEK293T cells preincubated for 30 mins followed by washout and measured after 5 hrs by Bright-glo luciferase assay.

Molecules are shown by their SMILES.

T1 sequence (Q86WV6 whole entry): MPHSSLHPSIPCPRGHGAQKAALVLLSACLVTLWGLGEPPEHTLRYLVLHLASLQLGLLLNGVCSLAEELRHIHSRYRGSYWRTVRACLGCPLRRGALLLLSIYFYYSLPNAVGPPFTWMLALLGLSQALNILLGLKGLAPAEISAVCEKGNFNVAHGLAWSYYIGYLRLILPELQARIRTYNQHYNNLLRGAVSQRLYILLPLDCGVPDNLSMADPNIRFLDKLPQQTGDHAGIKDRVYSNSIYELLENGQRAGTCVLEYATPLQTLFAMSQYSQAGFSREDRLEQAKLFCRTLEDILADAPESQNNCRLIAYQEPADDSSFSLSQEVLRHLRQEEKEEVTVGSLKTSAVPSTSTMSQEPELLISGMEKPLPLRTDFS

On to `Nc1ncnc2c1ncn2[C@@H]1O[C@@H]2C=CP(=O)(O)O[C@H]3[C@@H](F)[C@H](n4cnc5c(N)ncnc54)O[C@@H]3COP(=O)(O)O[C@H]2[C@H]1F`, for which the EC50 in assay [1] and in assay [2] was 100 nM in each case.
